Measured values from patent publication US20240208992A1, “MACROCYCLES AS CFTR MODULATORS” (Idorsia Pharmaceuticals Ltd, priority 2021, published 2024).

Molecular target: human F508del-CFTR (Homo sapiens, UniProt P13569, DEL508-508)
Assay: F508del-CFTR cell surface expression (corrector activity), DiscoveRx ß-galactosidase complementation chemiluminescence assay in recombinant U2OS cell line;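 also: U2OS cells co-expressing ProLink-tagged F508del-CFTR and a membrane-anchored enzyme acceptor, where more surface CFTR restores β-galactosidase activity measured by chemiluminescence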
Conditions: for EC50: EC50, F508del-CFTR cell surface expression, U2OS cells, 16h compound incubation, geomean values; for Emax: U2OS, in relation to Emax of corrector lumacaftor (=100%), arithmetic mean values

Chain of human F508del-CFTR (P13569 with tags, fused parts or gaps DEL508-508): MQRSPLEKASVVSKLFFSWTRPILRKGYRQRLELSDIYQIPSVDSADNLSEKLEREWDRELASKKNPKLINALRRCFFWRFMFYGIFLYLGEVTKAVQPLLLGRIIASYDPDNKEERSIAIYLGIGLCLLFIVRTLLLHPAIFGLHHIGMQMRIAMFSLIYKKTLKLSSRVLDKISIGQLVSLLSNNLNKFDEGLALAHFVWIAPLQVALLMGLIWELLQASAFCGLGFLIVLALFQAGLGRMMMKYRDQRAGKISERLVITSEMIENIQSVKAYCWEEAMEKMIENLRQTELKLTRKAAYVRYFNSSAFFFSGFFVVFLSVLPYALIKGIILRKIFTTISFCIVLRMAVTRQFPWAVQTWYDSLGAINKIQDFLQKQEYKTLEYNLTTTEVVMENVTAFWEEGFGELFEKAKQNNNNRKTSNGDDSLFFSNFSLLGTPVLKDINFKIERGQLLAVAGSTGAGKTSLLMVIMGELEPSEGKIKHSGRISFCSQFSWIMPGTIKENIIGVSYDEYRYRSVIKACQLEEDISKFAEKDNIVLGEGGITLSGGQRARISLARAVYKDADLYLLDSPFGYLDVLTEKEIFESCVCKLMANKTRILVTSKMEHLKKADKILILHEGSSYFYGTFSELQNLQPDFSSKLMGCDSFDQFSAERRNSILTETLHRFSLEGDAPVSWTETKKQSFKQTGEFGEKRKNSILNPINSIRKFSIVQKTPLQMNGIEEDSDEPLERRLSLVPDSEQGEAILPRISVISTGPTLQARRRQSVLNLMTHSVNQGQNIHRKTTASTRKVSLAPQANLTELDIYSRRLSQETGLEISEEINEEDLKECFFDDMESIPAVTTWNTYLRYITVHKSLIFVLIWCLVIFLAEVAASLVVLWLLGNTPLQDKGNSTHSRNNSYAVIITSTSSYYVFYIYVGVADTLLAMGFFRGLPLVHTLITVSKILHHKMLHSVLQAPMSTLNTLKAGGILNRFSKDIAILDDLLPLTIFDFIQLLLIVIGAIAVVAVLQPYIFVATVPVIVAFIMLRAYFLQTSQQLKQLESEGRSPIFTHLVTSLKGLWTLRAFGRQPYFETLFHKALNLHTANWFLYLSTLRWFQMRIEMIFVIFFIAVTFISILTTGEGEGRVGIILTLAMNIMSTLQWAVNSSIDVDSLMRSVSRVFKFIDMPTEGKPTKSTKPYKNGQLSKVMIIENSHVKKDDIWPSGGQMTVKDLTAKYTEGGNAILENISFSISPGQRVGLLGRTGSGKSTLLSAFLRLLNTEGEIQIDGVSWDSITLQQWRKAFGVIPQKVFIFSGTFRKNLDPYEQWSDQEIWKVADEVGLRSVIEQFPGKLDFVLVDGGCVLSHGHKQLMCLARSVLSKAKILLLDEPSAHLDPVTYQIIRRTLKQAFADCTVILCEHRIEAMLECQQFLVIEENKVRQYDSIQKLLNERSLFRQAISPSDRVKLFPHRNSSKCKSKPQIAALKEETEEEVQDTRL

SMILES	EC50 [µM]	Emax [%]
CC(C)C[C@H]1C(=O)N(C)C2(CC2)C(=O)N[C@H](Cc2ccccc2)COc2cnc3ccccc3c2C(=O)N[C@H](C(=O)NCCc2ccc(-n3nccn3)cc2)CC(=O)N1C [Example 454, (3′S,7′S,13′R)-N-(4-(2H-1,2,3-triazol-2-yl)phenethyl)-13′-benzyl-7′-isobutyl-6′,9′-dimethyl-1′,5′,8′,11′-tetraoxo-2′,3′,4′,5′,6′,7′,8′,9′,11′,12′,13′,14′-dodecahydro-1′H-spiro[cyclopropane-1,10′-[1]oxa[4,7,10,14]tetraazacycloheptadecino[17,16-c]quinoline]-3′-carboxamide]	0.234	236
Cc1cc(CCNC(=O)[C@@H]2CC(=O)N(C)[C@@H](CC(C)C)C(=O)N3CCCC[C@@H]3C(=O)N[C@H](Cc3ccccc3)COc3ccc4c(c3C(=O)N2)OCC4)on1 [Example 455, (8S,12S,18aR,21R)-21-benzyl-12-isobutyl-11-methyl-N-(2-(3-methylisoxazol-5-yl)ethyl)-6,10,13,19-tetraoxo-3,4,6,7,8,9,10,11,12,13,16,17,18,18a,19,20,21,22-octadecahydro-15H-benzofuro[7,6-p]pyrido[2,1-f][1]oxa[4,7,10,14]tetraazacycloheptadecine-8-carboxamide]	0.677	211
COc1cccc(CCNC(=O)[C@@H]2CC(=O)N(C)[C@@H](CC(C)C)C(=O)N3CCCC[C@@H]3C(=O)N[C@H](Cc3ccccc3)COc3ccc4c(c3C(=O)N2)OCC4)c1 [Example 456, (8S,12S,18aR,21R)-21-benzyl-12-isobutyl-N-(3-methoxyphenethyl)-11-methyl-6,10,13,19-tetraoxo-3,4,6,7,8,9,10,11,12,13,16,17,18,18a,19,20,21,22-octadecahydro-15H-benzofuro[7,6-p]pyrido[2,1-f][1]oxa[4,7,10,14]tetraazacycloheptadecine-8-carboxamide]	0.25	185
COCCN1C(=O)[C@H](CC(C)C)N(C)C(=O)C[C@@H](C(=O)NCCc2cccc(OC)c2)NC(=O)c2c(ccc3ccccc23)OC[C@@H](Cc2ccccc2)NC(=O)C12CC2 [Example 457, (3′S,7′S,13′R)-13′-benzyl-7′-isobutyl-9′-(2-methoxyethyl)-N-(3-methoxyphenethyl)-6′-methyl-1′,5′,8′,11′-tetraoxo-2′,3′,4′,5′,6′,7′,8′,9′,11′,12′,13′,14′-dodecahydro-1′H-spiro[cyclopropane-1,10′-naphtho[1,2-p][1]oxa[4,7,10,14]tetraazacycloheptadecine]-3′-carboxamide]	0.326	144
Cc1cc(CCNC(=O)[C@@H]2CC(=O)N(C)[C@@H](CC(C)C)C(=O)N3CCN(C(=O)OCC(Cl)(Cl)Cl)C[C@@H]3C(=O)N[C@H](Cc3ccccc3)COc3cnc4ccccc4c3C(=O)N2)on1 [Example 458, 2,2,2-trichloroethyl (9S,13S,19aR,22R)-22-benzyl-13-isobutyl-12-methyl-9-((2-(3-methylisoxazol-5-yl)ethyl)carbamoyl)-7,11,14,20-tetraoxo-7,8,9,10,11,12,13,14,16,17,19,19a,20,21,22,23-hexadecahydro-18H-pyrazino[2′,1′:6,7][1]oxa[4,7,10,14]tetraazacycloheptadecino[17,16-c]quinoline-18-carboxylate]	0.209	238
COc1cccc(CCNC(=O)[C@@H]2CC(=O)N(C)[C@@H](CC(C)C)C(=O)N3CCN(C)C[C@@H]3C(=O)N[C@H](Cc3ccccc3)COc3cnc4ccccc4c3C(=O)N2)c1 [Example 459, (9S,13S,19aR,22R)-22-benzyl-13-isobutyl-N-(3-methoxyphenethyl)-12,18-dimethyl-7,11,14,20-tetraoxo-7,8,9,10,11,12,13,14,17,18,19,19a,20,21,22,23-hexadecahydro-16H-pyrazino[2′,11:6,7][1]oxa[4,7,10,14]tetraazacycloheptadecino[17,16-c]quinoline-9-carboxamide]	0.726	390
COc1cccc(CCNC(=O)[C@@H]2CC(=O)N(C)[C@@H](CC(C)C)C(=O)N(C)C3(CC3)C(=O)N[C@H](Cc3ccccc3)COc3ccc4ncccc4c3C(=O)N2)c1 [Example 460, (3′S,7′S,13′R)-13′-benzyl-7′-isobutyl-N-(3-methoxyphenethyl)-6′,9′-dimethyl-1′,5′,8′,11′-tetraoxo-2′,3′,4′,5′,6′,7′,8′,9′,11′,12′,13′,14′-dodecahydro-1′H-spiro[cyclopropane-1,10′-[1]oxa[4,7,10,14]tetraazacycloheptadecino[16,17-f]quinoline]-3′-carboxamide]	0.31	398
CC(C)C[C@H]1C(=O)N2CCCC[C@@H]2C(=O)N[C@H](Cc2ccccc2)COc2cnc3ccccc3c2C(=O)N[C@H](C(=O)NCCc2cccc(-n3nccn3)c2)CC(=O)N1C [Example 461, (9S,13S,19aR,22R)-N-(3-(2H-1,2,3-triazol-2-yl)phenethyl)-22-benzyl-13-isobutyl-12-methyl-7,11,14,20-tetraoxo-7,8,9,10,11,12,13,14,17,18,19,19a,20,21,22,23-hexadecahydro-16H-pyrido[2′,1′:6,7][1]oxa[4,7,10,14]tetraazacycloheptadecino[17,16-c]quinoline-9-carboxamide]	0.444	262
CC(C)C[C@H]1C(=O)N2CCCC[C@H]2C(=O)N[C@H](Cc2ccccc2)COc2cnc3ccccc3c2C(=O)N[C@H](C(=O)NCCc2cccc(-n3nccn3)c2)CC(=O)N1C [Example 462, (9S,13S,19aS,22R)-N-(3-(2H-1,2,3-triazol-2-yl)phenethyl)-22-benzyl-13-isobutyl-12-methyl-7,11,14,20-tetraoxo-7,8,9,10,11,12,13,14,17,18,19,19a,20,21,22,23-hexadecahydro-16H-pyrido[2′,1′:6,7][1]oxa[4,7,10,14]tetraazacycloheptadecino[17,16-c]quinoline-9-carboxamide]	0.345	130
CC(C)C[C@H]1C(=O)N2CCCC[C@@H]2C(=O)N[C@H](Cc2ccccc2)COc2cnc3ccccc3c2C(=O)N[C@H](C(=O)NCCc2ccc(-n3nccn3)cc2)CC(=O)N1C [Example 463, (9S,13S,19aR,22R)-N-(4-(2H-1,2,3-triazol-2-yl)phenethyl)-22-benzyl-13-isobutyl-12-methyl-7,11,14,20-tetraoxo-7,8,9,10,11,12,13,14,17,18,19,19a,20,21,22,23-hexadecahydro-16H-pyrido[2′,1′:6,7][1]oxa[4,7,10,14]tetraazacycloheptadecino[17,16-c]quinoline-9-carboxamide]	0.278	269
CC(C)C[C@H]1C(=O)N2CCCC[C@H]2C(=O)N[C@H](Cc2ccccc2)COc2cnc3ccccc3c2C(=O)N[C@H](C(=O)NCCc2ccc(-n3nccn3)cc2)CC(=O)N1C [Example 464, (9S,13S,19aS,22R)-N-(4-(2H-1,2,3-triazol-2-yl)phenethyl)-22-benzyl-13-isobutyl-12-methyl-7,11,14,20-tetraoxo-7,8,9,10,11,12,13,14,17,18,19,19a,20,21,22,23-hexadecahydro-16H-pyrido[2′,1′:6,7][1]oxa[4,7,10,14]tetraazacycloheptadecino[17,16-c]quinoline-9-carboxamide]	0.319	109
COc1cccc(CCNC(=O)[C@@H]2CC(=O)N(C)[C@@H](CC(C)C)C(=O)N(C)CC(=O)N[C@H](Cc3ccccc3)COc3ccc4cnccc4c3C(=O)N2)c1 [Example 465]	0.8	387
COc1nccc2c1C(=O)N[C@H](C(=O)NCCc1cccc(-n3nccn3)c1)CC(=O)N(C)[C@@H](CC(C)C)C(=O)N1CCCC[C@@H]1C(=O)N[C@H](Cc1ccccc1)CO2 [Example 466, (7S,11S,17aR,20R)-N-(3-(2H-1,2,3-triazol-2-yl)phenethyl)-20-benzyl-11-isobutyl-4-methoxy-10-methyl-5,9,12,18-tetraoxo-5,6,7,8,9,10,11,12,15,16,17,17a,18,19,20,21-hexadecahydro-14H-dipyrido[2,1-f:3′,4′-p][1]oxa[4,7,10,14]tetraazacycloheptadecine-7-carboxamide]	0.548	328
COc1nccc2c1C(=O)N[C@H](C(=O)NCCc1cccc(-n3nccn3)c1)CC(=O)N(C)[C@@H](CC(C)C)C(=O)N1CCCC[C@H]1C(=O)N[C@H](Cc1ccccc1)CO2 [Example 467, (7S,11S,17aS,20R)-N-(3-(2H-1,2,3-triazol-2-yl)phenethyl)-20-benzyl-11-isobutyl-4-methoxy-10-methyl-5,9,12,18-tetraoxo-5,6,7,8,9,10,11,12,15,16,17,17a,18,19,20,21-hexadecahydro-14H-dipyrido[2,1-f:3′,4′-p][1]oxa[4,7,10,14]tetraazacycloheptadecine-7-carboxamide]	0.936	152
COc1nccc2c1C(=O)N[C@H](C(=O)NCCc1ccc(-n3nccn3)cc1)CC(=O)N(C)[C@@H](CC(C)C)C(=O)N1CCCC[C@@H]1C(=O)N[C@H](Cc1ccccc1)CO2 [Example 468, (7S,11S,17aR,20R)-N-(4-(2H-1,2,3-triazol-2-yl)phenethyl)-20-benzyl-11-isobutyl-4-methoxy-10-methyl-5,9,12,18-tetraoxo-5,6,7,8,9,10,11,12,15,16,17,17a,18,19,20,21-hexadecahydro-14H-dipyrido[2,1-f:3′,4′-p][1]oxa[4,7,10,14]tetraazacycloheptadecine-7-carboxamide]	0.504	361
COc1cccc(CCNC(=O)[C@@H]2CC(=O)N(C)[C@@H](CC(C)C)C(=O)N3CCCC[C@@H]3C(=O)N[C@H](Cc3ccccc3)COc3nc4ccccn4c3C(=O)N2)c1 [Example 469, (7S,11S,22R,24aR)-22-benzyl-7-isobutyl-N-(3-methoxyphenethyl)-8-methyl-6,9,13,24-tetraoxo-1,3,4,6,7,8,9,10,11,12,13,21,22,23,24,24a-hexadecahydro-2H-pyrido[2,1-f]pyrido[2′,1′:2,3]imidazo[4,5-p][1]oxa[4,7,10,14]tetraazacycloheptadecine-11-carboxamide]	0.381	110
